Measurements reported in patent US12509431B2, “1,4-dihydroquinazolinone compounds and uses thereof” (Edgewise Therapeutics, Inc., priority 2022, dated 2025).

Experiments:
Type in all cases: biochemical
Details in all cases: Table 7
Porcine Atria myofibrils = assay: Myofibril ATPase assay (PK/LDH NADH-coupled), atria myofibrils
Procedure, shortened: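 Porcine atrial myofibril ATPase followed via PK/LDH-coupled NADH depletion, absorbance at 340 nm read every 1.5-2 min over 75 min. Slopes (mAU/min) normalized to vehicle as 100% and fit to a 4-parameter logistic; EC25% derived, plus EC50% for inhibitors.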

[1] = test system: Rabbit Skeletal myofibrils (rabbit psoas muscle); assay: Myofibril ATPase assay (PK/LDH NADH-coupled), skeletal myofibrils
Procedure, shortened: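 Rabbit psoas myofibrils in pCa (PIPES/CaCl2/EGTA, pH 7.0) buffer; ADP coupled via PK/LDH to NADH loss, read at 340 nm every 1.5–2 min for 75 min. Slopes normalized to vehicle (100%) and fit to 4-parameter logistic for EC25, plus EC50 for inhibitors.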

[2] = biological target: T1, Porcine Ventricle myofibrils (left ventricle of Yucatan minipigs) (Sus scrofa, UniProt P79293); assay: Myofibril ATPase assay (PK/LDH NADH-coupled), ventricle myofibrils
T1 construct: Myofibrils from porcine cardiac muscle was isolated from the left ventricle of Yucatan minipigs; tissue Exemplar Genetics; host or cells: left ventricle of Yucatan minipigs
Procedure, shortened: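 Yucatan minipig left-ventricle myofibrils; ATPase measured by PK/LDH-coupled NADH loss at 340 nm, read every 1.5-2 min for 75 min. Slopes normalized to vehicle (100%) and fit to 4-parameter logistic model; EC25 and, for inhibitors, EC50 calculated.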

T1 sequence (P79293 whole entry): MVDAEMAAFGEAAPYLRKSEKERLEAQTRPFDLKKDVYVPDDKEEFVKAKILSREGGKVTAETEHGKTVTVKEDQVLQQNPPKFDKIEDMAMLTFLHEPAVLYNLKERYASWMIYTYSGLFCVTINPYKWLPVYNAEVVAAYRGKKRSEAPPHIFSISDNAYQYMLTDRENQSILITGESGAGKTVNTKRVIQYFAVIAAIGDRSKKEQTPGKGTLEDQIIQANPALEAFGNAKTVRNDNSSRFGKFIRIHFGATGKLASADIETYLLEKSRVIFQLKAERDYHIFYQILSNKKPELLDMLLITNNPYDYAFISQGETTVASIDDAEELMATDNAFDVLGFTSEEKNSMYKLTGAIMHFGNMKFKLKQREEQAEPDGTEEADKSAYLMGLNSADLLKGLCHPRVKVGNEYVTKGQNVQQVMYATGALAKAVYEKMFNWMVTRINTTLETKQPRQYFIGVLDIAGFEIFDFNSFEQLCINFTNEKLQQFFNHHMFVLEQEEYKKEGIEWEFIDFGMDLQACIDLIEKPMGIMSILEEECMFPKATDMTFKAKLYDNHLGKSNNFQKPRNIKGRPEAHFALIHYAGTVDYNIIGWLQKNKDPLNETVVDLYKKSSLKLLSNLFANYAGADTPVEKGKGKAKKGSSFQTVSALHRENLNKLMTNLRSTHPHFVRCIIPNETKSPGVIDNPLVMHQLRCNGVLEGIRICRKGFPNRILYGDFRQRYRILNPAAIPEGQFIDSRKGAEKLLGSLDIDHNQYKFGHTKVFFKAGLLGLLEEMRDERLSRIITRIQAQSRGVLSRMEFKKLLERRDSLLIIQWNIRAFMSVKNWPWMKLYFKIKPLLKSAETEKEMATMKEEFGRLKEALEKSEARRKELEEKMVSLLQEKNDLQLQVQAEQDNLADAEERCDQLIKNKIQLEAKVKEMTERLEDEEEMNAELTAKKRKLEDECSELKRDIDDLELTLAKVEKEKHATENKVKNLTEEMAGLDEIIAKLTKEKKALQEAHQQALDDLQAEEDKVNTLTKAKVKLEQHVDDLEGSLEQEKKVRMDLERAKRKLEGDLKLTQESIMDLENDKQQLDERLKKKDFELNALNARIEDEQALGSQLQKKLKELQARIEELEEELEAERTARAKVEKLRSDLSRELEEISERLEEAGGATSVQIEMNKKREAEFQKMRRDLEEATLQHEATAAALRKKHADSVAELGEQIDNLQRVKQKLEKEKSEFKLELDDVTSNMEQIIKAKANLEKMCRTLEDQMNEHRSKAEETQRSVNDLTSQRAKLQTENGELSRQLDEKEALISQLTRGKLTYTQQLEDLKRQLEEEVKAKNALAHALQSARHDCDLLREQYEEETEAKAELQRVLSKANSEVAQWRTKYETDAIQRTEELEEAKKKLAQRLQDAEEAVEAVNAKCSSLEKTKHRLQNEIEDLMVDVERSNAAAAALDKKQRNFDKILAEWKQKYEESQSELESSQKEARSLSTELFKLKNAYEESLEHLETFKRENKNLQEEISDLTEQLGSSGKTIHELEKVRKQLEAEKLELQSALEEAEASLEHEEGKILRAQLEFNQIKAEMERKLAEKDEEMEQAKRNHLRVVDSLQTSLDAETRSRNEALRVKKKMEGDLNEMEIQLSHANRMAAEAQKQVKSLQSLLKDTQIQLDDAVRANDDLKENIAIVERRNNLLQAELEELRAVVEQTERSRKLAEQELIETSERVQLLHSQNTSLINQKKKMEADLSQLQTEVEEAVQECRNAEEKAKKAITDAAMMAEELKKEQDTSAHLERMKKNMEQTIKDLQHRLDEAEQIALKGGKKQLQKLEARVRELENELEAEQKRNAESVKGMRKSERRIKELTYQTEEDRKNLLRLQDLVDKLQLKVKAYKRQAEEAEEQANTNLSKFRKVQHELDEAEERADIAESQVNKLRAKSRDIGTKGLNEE

SMILES	Porcine Atria IC25 (Porcine Atria myofibrils) [µM]	Rabbit Psoas IC25 [1] [µM]	Porcine Ventricle IC25 [2] [µM]
C[C@H](NC(=O)CN1Cc2cc(F)cnc2NC1=O)c1ncc(F)cc1F [Compound N70]	100.00	100	100
C[C@H](NC(=O)CN1Cc2cc(F)cnc2NC1=O)c1ccc(F)cc1F [Compound N71, N-[(1S)-1-(2,4-Difluorophenyl)ethyl]-2-{6-fluoro-2-oxo-1H,4H-pyrido[2,3-d]pyrimidin-3-yl}acetamide]	36.26	2.804	100
C[C@H](NC(=O)CN1Cc2c(F)cncc2NC1=O)c1ccc(F)cc1F [Compound N72, N-[(1S)-1-(2,4-Difluorophenyl)ethyl]-2-{5-fluoro-2-oxo-1H,4H-pyrido[3,4-d]pyrimidin-3-yl}acetamide]	3.14	0.4483	39.96
C[C@@H](NC(=O)CN1Cc2c(ccnc2C(F)(F)F)NC1=O)c1ccc(C#N)cc1F [Compound N73]	100.00	35.6	100
C[C@H](NC(=O)CN1Cc2c(ccnc2C(F)(F)F)NC1=O)c1ccc(C#N)cc1F [Compound N74]	0.54	0.07565	1.559
C[C@@H](NC(=O)CN1Cc2cc(Cl)cnc2NC1=O)c1ncc(F)cc1F [Compound N75]	100.00	100	100
C[C@H](NC(=O)CN1Cc2cc(Cl)cnc2NC1=O)c1ncc(F)cc1F [Compound N76]	100.00	100	100
C[C@H](NC(=O)CN1C(=O)Nc2cccnc2[C@H]1C)c1ccc(F)cc1F [Compound N77, N—((S)-1-(2,4-difluorophenyl)ethyl)-2-((R)-4-methyl-2-oxo-1,4-dihydropyrido[3,2-d]pyrimidin-3(2H)-yl)acetamide]	2.11	2.441	24.08
C[C@H](NC(=O)CN1C(=O)Nc2cccnc2[C@@H]1C)c1ccc(F)cc1F [Compound N78, N—((S)-1-(2,4-difluorophenyl)ethyl)-2-((S)-4-methyl-2-oxo-1,4-dihydropyrido [3,2-d]pyrimidin-3(2H)-yl)acetamide]	26.68	11.14	31.94
C[C@@H](NC(=O)CN1Cc2c(ccnc2C(F)(F)F)NC1=O)c1ncc(F)cc1F [Compound N79]	100.00	100	100
C[C@H](NC(=O)CN1Cc2c(ccnc2C(F)(F)F)NC1=O)c1ncc(F)cc1F [Compound N80]	8.03	4.79	100
C[C@H](NC(=O)CN1Cc2c(ccnc2C#N)NC1=O)c1ccc(F)cc1F [Compound N81]	0.24	0.04549	0.545
C[C@H](NC(=O)CN1Cc2cc(Cl)cnc2NC1=O)c1ccc(F)cc1F [Compound N82]	100.00	100	100
C[C@H](NC(=O)[C@H](C)N1Cc2ncccc2NC1=O)c1ccc(F)cc1F [Compound N83]	0.74	1.802	100
C[C@H](NC(=O)[C@@H](C)N1Cc2ncccc2NC1=O)c1ccc(F)cc1F [Compound N84]	3.69	10.25	100
C[C@H](NC(=O)CN1C(=O)Nc2ccncc2[C@H]1C)c1ccc(F)cc1F [Compound N85]	18.87	4.254	100
C[C@H](NC(=O)CN1C(=O)Nc2ccncc2[C@@H]1C)c1ccc(F)cc1F [Compound N86]	30.96	10.83	100
COc1ccc2c(n1)C1(CC1)N(CC(=O)N[C@@H](C)c1ccc(F)cc1F)C(=O)N2 [Compound N87, N-[(1S)-1-(2,4-Difluorophenyl)ethyl]-2-{6′-methoxy-2′-oxo-1′H-spiro[cyclopropane-1,4′-pyrido[3,2-d]pyrimidin]-3′-yl}acetamide]	0.03	0.0571	0.1682
C[C@H](NC(=O)CN1C(=O)Nc2cccnc2C12CC2)c1ccc(F)cc1F [Compound N88]	0.13	0.1726	0.7484
CC(C)C[C@@H](C(=O)N[C@@H](C)c1ccc(F)cc1F)N1Cc2nc(F)ccc2NC1=O [Compound N89]	100.00	100	100

SMILES	Porcine Atria IC25 (Porcine Atria myofibrils) [µM]	Rabbit Psoas IC25 [1] [µM]	Porcine Ventricle IC25 [2] [µM]
CC(C)C[C@H](C(=O)N[C@@H](C)c1ccc(F)cc1F)N1Cc2nc(F)ccc2NC1=O [Compound N90]	100.00	49.64	100
Cc1ncc2c(n1)CN(CC(=O)N[C@@H](C)c1ccc(F)cc1F)C(=O)N2 [Compound N91]	56.88	17.09	100
C[C@H](NC(=O)[C@H](C)N1Cc2nc(F)ccc2NC1=O)c1ccccc1F [Compound N92]	100.00	100	100
C[C@H](NC(=O)[C@@H](C)N1Cc2nc(F)ccc2NC1=O)c1ccccc1F [Compound N93]	1.66	100	100
C[C@H](NC(=O)[C@H](C)N1Cc2c(ccnc2Br)NC1=O)c1ccc(F)cc1F [Compound N94]	0.22	0.0739	0.4952
C[C@H](NC(=O)[C@@H](C)N1Cc2c(ccnc2Br)NC1=O)c1ccc(F)cc1F [Compound N95]	3.69	0.9565	5.968
C[C@H](NC(=O)[C@H](Cc1ccccc1)N1Cc2nc(F)ccc2NC1=O)c1ccc(F)cc1F [Compound N96]	100.00	100	100
C[C@H](NC(=O)[C@@H](Cc1ccccc1)N1Cc2nc(F)ccc2NC1=O)c1ccc(F)cc1F [Compound N97]	100.00	90.25	100
C[C@H](NC(=O)[C@H](C)N1Cc2nc(F)ccc2NC1=O)c1ccc(F)cc1 [Compound N98]	0.36	8.57	71.64
C[C@H](NC(=O)[C@@H](C)N1Cc2nc(F)ccc2NC1=O)c1ccc(F)cc1 [Compound N99]	8.28	100	100
O=C(CN1Cc2c(ccnc2Cl)NC1=O)N[C@@H](c1ccc(F)cc1F)C(F)(F)F [Compound N100]	100.00	9.48	100
O=C(CN1Cc2c(ccnc2Cl)NC1=O)N[C@H](c1ccc(F)cc1F)C(F)(F)F [Compound N101]	0.27	0.1554	1.94
C[C@H](NC(=O)CN1Cc2nc(Br)ccc2NC1=O)c1ccc(F)cc1F [Compound N103]	0.16	1.03	9.96
C[C@@H](NC(=O)CN1Cc2nc(F)ccc2NC1=O)c1ncc(F)cc1F [Compound N104, N-[(1R)-1-(3,5-Difluoropyridin-2-yl)ethyl]-2-[6-fluoro-2-oxo-1H,4H-pyrido[3,2-d]pyrimidin-3-yl]acetamide]	0.16	0.1699	4.155
C[C@H](NC(=O)CN1Cc2nc(F)ccc2NC1=O)c1ncc(F)cc1F [Compound N105]	100.00	30.96	100
COc1ccc2c(n1)CN([C@H](C)C(=O)N[C@@H](C)c1ccc(F)cc1F)C(=O)N2 [Compound N106]	2.58	3.732	100
COc1ccc2c(n1)CN([C@@H](C)C(=O)N[C@@H](C)c1ccc(F)cc1F)C(=O)N2 [Compound N107]	100.00	100	100
C[C@H](NC(=O)[C@H](C)N1Cc2c(ccnc2C(F)(F)F)NC1=O)c1ccc(F)cc1F [Compound N108]	1.41	0.0727	49.28
C[C@H](NC(=O)CN1Cc2nc(OC(F)(F)F)ccc2NC1=O)c1ccc(F)cc1F [Compound N109]	5.44	0.4553	100
